From US11813332B2, “Photosensitizer-peptide conjugate comprising degradable linker, and composition for photodynamic diagnosis or treatment comprising same” (NATIONAL CANCER CENTER, priority 2016, dated 2023)
Residues, ends and D or L forms follow the SMILES beside them. *: point of attachment. X1 = C=Cc1c(C)c2cc3nc(c(C)c4nc(cc5[nH]c(cc1[nH]2)c(C)c5CC)C(C)=C4C(=O)O)[C@@H](CCC(=O)*)[C@@H]3C

Assays:
PCA-SMC cells [1] = assay: Cell absorption and fluorescence activity, confocal laser microscope; assay type: cell-based, human; details: 2 μM, 4 hours
Method: (§1) Thereafter, the existing medium was replaced with 200 μl of a fresh medium in which 2 μM the conjugate was dissolved, and the cells were cultured for 30 minutes, 1 hour, and 4 hours, respectively.

[2] = Singlet oxygen generation (SOSG) under 670 nm laser after DTT treatment; details: for Increase of singlet oxygen generation: 5 mM DTT, 4 hours, 670 nm laser 50 mW/cm^2; for Generation of singlet oxygen in the quenched state: DTT not treated or 2 μM DTT
Method: Singlet oxygen generation (SOG) was measured by the following method. The C-EGFR conjugate thus obtained was dissolved in PBS to be 2 μM, and then DTT-treated samples were mixed with 2 μM and 5 mM DTT, respectively, and the same amount of PBS was mixed in the buffer-treated group. The mixed solution (200 μl) was cultured at 37° C. for 4 hours. Subsequently, oxygen-saturated PBS including concentrated singlet oxygen sensor green (SOSG) was mixed and the final SOSG concentration was adjusted to 5 μM. Fluorescence intensity change of the SOSG was periodically measured using a 670 nm continuous wavelength laser device during the light irradiation (light irradiation dose: 50 mW/cm^2) of the sample.
In addition, in order to confirm the generation of singlet oxygen (SOG), the same method as in Example 2 was performed and analyzed.

HCC70 cells [3] = details: 0~10 μM, dark
Method: In the dark state without light, the C-EGFR conjugate of the present invention was treated with 0˜10 μM concentration in HCC70 cells and cytotoxicity was evaluated.

HCC70 cells [4] = assay: Real-time observation of fluorescence quenching and recovery without washing (live cell imaging); assay type: cell-based, human; details: no washing, images over 4 hours
Method: An experiment was conducted to verify whether a C-EGFR conjugate of the present invention in which fluorescence signal generation has been quenched from outside the target cell strongly generates fluorescence after the absorption of the C-EGFR conjugate into target cells. EGFR-overexpressing HCC70 cells were treated with the C-EGFR conjugate and free photosensitizer (Ce4), and then fluorescence images were obtained at regular time intervals without washing. The detailed method is provided as follows.
The existing medium was then replaced with 0.5 ml of fresh medium including the conjugate and the free photosensitizer. Thereafter, each of the near infrared light fluorescence images (λEx. 640±15 nm, λEm. 690±25 nm) were obtained at intervals of 15 minutes for 4 hours using the Live Cell Imaging System (Axio Observer Z1, Carl Zeiss, Germany) without washing the cells.

PCA-SMC cells [5] = assay: Photodynamic therapy efficacy, CCK-8 assay after 670 nm laser; assay type: cell-based, human; details: 10 μM, 4 h treatment, washed
Method: In order to evaluate the efficacy of photodynamic therapy, PCA-SMC cells were put in a 1×10^3/well and MDA-MB-231 cells and MDA-MB-468 cells were put as much as 1×10^4/well in a 96-well plate, respectively, and were cultured for 24 hours to allow the cells to be adhered well. L-EGFR conjugates were prepared at concentrations of 0.1 μM, 0.5 μM, 1 μM, 2 μM, 5 μM and 10 μM, respectively, treated with cells, and then cultured for 4 hours. Thereafter, the conjugate that had not been absorbed into cells was washed and removed, and then irradiated with a 670 nm laser at an irradiation dose density of 50 mW/cm^2 for 6 minutes and 40 seconds. Thereafter, after further culturing in an incubator until the next day, the cytotoxicity was assessed by CCK-8 assay.

HCC70 cells [6] = assay: Cell absorption and fluorescence activity, confocal laser microscope; assay type: cell-based, human; details: 2 μM, 4 hours
Excerpt: In the 8-well Lab-Tek chamber, 5×10^3 PCA-SMC cells and 5×10^4 HCC70 cells were put in each well.

[7] = Fluorescence recovery by reducing agent (DTT) treatment; details: 5 mM DTT; for Increase of fluorescence intensity by DTT treatment: 4 hours, conjugate 2 μM in PBS, λEx 400 nm, λEm 665 nm
Method: The increase of fluorescence and reactive oxygen generation by reducing agent treatment was analyzed.
In the dithiothreitol (DTT) treatment sample, which is a reducing agent, 2 μM of a conjugate was mixed with 2 μM and 5 mM DTT, and the same amount of phosphate-buffered saline (PBS) was added to the buffer-treated group. The fluorescent intensity of the mixed solution (200 μl) was measured at intervals of 30 minutes for 4 hours (λEx. 400 nm, λEm. 665 nm).
Fluorescence recovery of the conjugate thus obtained by the reaction in response to a reducing agent present in a high concentration in cancer cells was performed and analyzed in the same manner as in Example 2. On the other hand, a sample prepared by dilution was put into a multifunctional microplate reader to obtain fluorescence spectrum (λEx. 400 nm, λEm. 620˜850 nm) results.
Meanwhile, in order to analyze the reactivity of the reducing agent/enzyme complex reaction type Ce4-CRRCW conjugate to the reducing agent, the conjugate was treated with reducing agents DTT 2 μM and 5 mM for 6 hours and put into a multifunctional microplate reader to obtain the fluorescence spectrum (λEx. 400 nm, λEm. 620˜850 nm) results. In order to analyze the reactivity to the enzyme, the conjugate was treated with cathepsins B, S, L, and S, or cathepsin B pretreated with cathepsin inhibitor E64 for 6 hours and put into a multifunctional microplate reader to obtain the fluorescence spectrum (λEx. 400 nm, λEm. 620˜850 nm) results. In order to analyze the reducing agent/enzyme complex reaction, 5 mM DTT and cathepsin B enzyme were treated together for 6 hours and put into a multifunctional microplate reader to obtain the fluorescence spectrum (λEx. 400 nm, λEm. 620˜850 nm) results.

trypsin enzyme = details: after 4 hours, 37° C., PBS, λEm 665 nm
Method: 1 nmol of each of Ce4-RRWW and Ce4-RRWWW thus obtained was prepared and dissolved in a PBS solution. The trypsin enzyme was mixed with each […] of each conjugate and fluorescence changes were observed over time at 37° C.

KB cells = details: 2 μM
Method: KB cells per well were put in a 4-well Lab-Tek chamber per 2×10^5, and were cultured for 24 hours to allow the cells to be absorbed well. Thereafter, the existing medium was replaced with 500 μl of fresh medium in which the Ce4-RRW conjugate (2 μM) was dissolved, and then the cells were cultured for 4 hours.
Finally, the cells were washed three times with the culture medium, and then a near-infrared fluorescence image (λEx. 405 nm, λEm. 625˜754 nm) was obtained using a confocal laser microscope.
Experiments were performed to determine the intracellular location of the Ce4-RRW of the present invention. In the 8-well Lab-Tek chamber, 5×10^4 KB cells were put in each well. The cells were cultured for 24 hours to allow the cells to be absorbed well, and then 2 μM Ce4-RRW was added and cultured for 4 hours, followed by washing three times. Thereafter, after replacing the existing medium with fresh medium including 100 nM LysoTracker Blue DND-22 dye, the cells were cultured for 45 minutes. Fluorescent images of the Ce4-RRW (λEx. 405 nm, λEm. 625˜754 nm) and LysoTracker (λEx. 405 nm, λEm. 411˜497 nm) were obtained for these samples using confocal microscopy.

[8] = 2 μM, PBS including 10% FBS, room temperature, 4 hours
Method: The L-EGFR conjugate of the present invention was mixed with PBS including 10% […], fetal bovine serum (FBS, Gibco, USA), respectively, and cultured, and the stability in the serum was evaluated. The final concentration of the conjugate in solution was adjusted to 2 μM. The solution was allowed to react at room temperature for 4 hours and then put in a multifunctional microplate reader (Safire 2, Tecan, Switzerland) to obtain a fluorescence spectrum (λEx. 400 nm) result.
The Ce4-RRW conjugate of the present invention was mixed with PBS including 10% of FBS and cultured to evaluate the stability in serum. The final concentration of the conjugate in solution was adjusted to 2 μM. The solution was allowed to react at room temperature for 4 hours and then put in a multifunctional microplate reader to obtain a fluorescence spectrum (λEx. 610 nm, λEm. 620˜850 nm) result.

MDA-MB-468 cells [9] = details: 0~10 μM, dark
Method: In the dark state without light, the L-EGFR conjugate of the present invention was added to MDA-MB-468 cells at a concentration of 0˜10 μM and cytotoxicity was evaluated.

MDA-MB-231 cells = assay: Cell absorption and fluorescence activity, confocal laser microscope; assay type: cell-based, human; details: 2 μM
Method: as §1

MDA-MB-468 cells [10] = assay: as above; assay type: cell-based, human; details: 2 μM
Method: as §1
L-EGFR conjugate was treated at a concentration of 2 μM and was cultured for 4 hours, followed by washing three times.

Molecule | Intracellular fluorescence signal / cell entry (PCA-SMC cells [1]) | Increase of singlet oxygen generation [2] | Generation of singlet oxygen in the quenched state [2] | Fluorescence image without washing (HCC70 cells [4]) | Cells alive after photodynamic therapy (PCA-SMC cells [5]) | Increase of fluorescence intensity by DTT treatment [7] | Increase of fluorescence versus initial fluorescence after trypsin treatment (trypsin enzyme) | Effect of serum protein on fluorescence of the conjugate [8] | also measured
C=Cc1c(C)c2cc3nc(c(C)c4[nH]c(cc5nc(cc1[nH]2)C(C)=C5CC)c(C)c4C(=O)O)[C@@H](CCC(=O)NCCOCCOCC(=O)N[C@H]1CSSC[C@@H](C(=O)N[C@@H](Cc2ccc(O)cc2)C(=O)N[C@@H](Cc2c[nH]cn2)C(=O)N[C@@H](Cc2c[nH]c4ccccc24)C(=O)N[C@@H](Cc2ccc(O)cc2)C(=O)NCC(=O)N[C@@H](Cc2ccc(O)cc2)C(=O)N[C@H](C(=O)N2CCC[C@H]2C(=O)N[C@@H](CCC(N)=O)C(=O)N[C@@H](CC(N)=O)C(=O)N[C@H](C(=O)N[C@H](C(=O)O)[C@@H](C)CC)C(C)C)[C@@H](C)O)NC1=O)[C@@H]3C [C-EGFR] | fluorescence signals were hardly exhibited | 5 times | inhibited | fluorescence signal generation is inhibited from outside the cell | at least 70% | 3.4 times | – | – | Cytotoxicity without light irradiation (HCC70 cells [3]): did not show cytotoxicity; Intracellular fluorescence signal (HCC70 cells [6]): strong fluorescence signals; Intracellular location (LysoTracker co-staining) (HCC70 cells [6]): migrated into the lysosomes; Time to fluorescence recovery after the start of the reaction [7]: ≤ 30 min
C=Cc1c(C)c2cc3nc(c(C)c4nc(cc5[nH]c(cc1[nH]2)c(C)c5CC)C(C)=C4C(=O)O)[C@@H](CCC(=O)N[C@@H](CCCNC(=N)N)C(=O)N[C@@H](CCCNC(=N)N)C(=O)N[C@@H](Cc1c[nH]c2ccccc12)C(=O)N[C@@H](Cc1c[nH]c2ccccc12)C(=O)N[C@@H](Cc1c[nH]c2ccccc12)C(=O)O)[C@@H]3C [Ce4-RRWWW] (X1-RRWWW-OH) | – | – | – | – | – | – | 4.3 times | – | –
C=Cc1c(C)c2cc3nc(c(C)c4nc(cc5[nH]c(cc1[nH]2)c(C)c5CC)C(C)=C4C(=O)O)[C@@H](CCC(=O)N[C@@H](CCCNC(=N)N)C(=O)N[C@@H](CCCNC(=N)N)C(=O)N[C@@H](Cc1c[nH]c2ccccc12)C(=O)N[C@@H](Cc1c[nH]c2ccccc12)C(=O)O)[C@@H]3C [Ce4-RRWW] | – | – | – | – | – | – | about 1.6 times | – | –
C=Cc1c(C)c2cc3nc(c(C)c4nc(cc5[nH]c(cc1[nH]2)c(C)c5CC)C(C)=C4C(=O)O)[C@@H](CCC(=O)N[C@@H](CCCNC(=N)N)C(=O)N[C@@H](CCCNC(=N)N)C(=O)N[C@@H](Cc1c[nH]c2ccccc12)C(=O)O)[C@@H]3C [Ce4-RRW] | – | – | – | – | – | – | – | did not affect the fluorescence | Intracellular fluorescence signal (KB cells): strong fluorescence signal; Intracellular location (LysoTracker co-staining) (KB cells; 4 hours): located in the lysosome
C=Cc1c(C)c2cc3nc(c(C)c4[nH]c(cc5nc(cc1[nH]2)C(C)=C5CC)c(C)c4C(=O)O)[C@@H](CCC(=O)NCCOCCOCC(=O)N[C@@H](CSSC[C@H](N)C(=O)N[C@@H](Cc1ccc(O)cc1)C(=O)N[C@@H](Cc1c[nH]cn1)C(=O)N[C@@H](Cc1c[nH]c2ccccc12)C(=O)N[C@@H](Cc1ccc(O)cc1)C(=O)NCC(=O)N[C@@H](Cc1ccc(O)cc1)C(=O)N[C@H](C(=O)N1CCC[C@H]1C(=O)N[C@@H](CCC(N)=O)C(=O)N[C@@H](CC(N)=O)C(=O)N[C@H](C(=O)N[C@H](C(=O)O)[C@@H](C)CC)C(C)C)[C@@H](C)O)C(=O)O)[C@@H]3C [L-EGFR] | did not enter the cell even after culturing for 4 hours | 2 times | suppressed | – | at least 70% | 2.5 times | – | did not affect the fluorescence intensity | Cytotoxicity without light irradiation (MDA-MB-468 cells [9]): did not show cytotoxicity; Intracellular fluorescence signal with culture time (MDA-MB-231 cells; 30 minutes to 4 hours): fluorescence intensity was increased with increasing culture time; Intracellular fluorescence signal (MDA-MB-231 cells; first 30 minutes): fluorescence was almost not observed; Fluorescence signal (MDA-MB-468 cells [10]; 30 minutes): strong fluorescence signal on the cell surface; Intracellular location (LysoTracker co-staining) (MDA-MB-468 cells [10]; 4 hours): activated in the lysosome; Fluorescence recovered within 5 minutes after the start of the reaction [7]: at least 90%
chlorin e4 [free photosensitizer, reference compound] | – | – | – | position of cancer cells cannot be distinguished | – | – | – | – | –
